According to patent US20260216345A1, “M6PR BINDING COMPOUNDS AND CONJUGATES” (Lycia Therapeutics, Inc., priority 2023, published 2026):
Entries after “also recorded” stand apart in the source; their conditions may differ. One block for each molecule: values may come before it.

Key:
CI-M6PR [1] = molecular target: T1, CI-M6PR (Homo sapiens, UniProt P11717); assay: Human CI-M6PR binding assay (ELISA); parameters: purchased R&D 6418-GR-050; details: for binding affinity to M6PR, rank among the conjugates tested: matuzumab conjugates (FIGS. 7A-7F), I-7 at d8 (DAR 8), I-11 at d4 (DAR 4)
Procedure: Nunc black solid bottom MaxiSorp plates were allowed to incubate overnight at 4° C. coated with 1 μg/mL of recombinant human CI-M6PR protein (R&D, 6418-GR-050) in 50 μL PBS. The next day, coating was decanted and plates were washed 3× with PBS. Wells were blocked with 350 μL of 3% BSA-PBS for 1 hour at room temperature. […] 50 μL of diluted conjugates were added to the plate and allowed to incubate at room temperature for 2 hours. After incubation, solutions in plate were decanted and washed with 350 μL of 0.05% PBS-Tween20 three times, drying the plate each wash on a clean paper towel. 50 μL of peroxidase AffiniPure Mouse Anti-Human IgG (Jackson Immuno, 209-035-088) diluted in 3% BSA-PBS to […] was added to the plate and allowed to incubate for 1 hour at room temperature in the dark. After incubation, solutions in plate were decanted and washed with 350 μL of 0.05% PBS-Tween20 3 times, drying the plate each wash on a clean paper towel. […] 50 μL of QuantaBlu solution was added to wells and allowed to incubate for 5-10 minutes at room temperature. After incubation, plates were read on a Perkin Elmer EnVision using photometric 340 and Umbelliferone 460 filter sets for excitation and emission, respectively. Data analysis and non-linear curve-fitting was performed using GraphPad Prism.
Target sequence in this assay (P11717 41-1365 limits assumed): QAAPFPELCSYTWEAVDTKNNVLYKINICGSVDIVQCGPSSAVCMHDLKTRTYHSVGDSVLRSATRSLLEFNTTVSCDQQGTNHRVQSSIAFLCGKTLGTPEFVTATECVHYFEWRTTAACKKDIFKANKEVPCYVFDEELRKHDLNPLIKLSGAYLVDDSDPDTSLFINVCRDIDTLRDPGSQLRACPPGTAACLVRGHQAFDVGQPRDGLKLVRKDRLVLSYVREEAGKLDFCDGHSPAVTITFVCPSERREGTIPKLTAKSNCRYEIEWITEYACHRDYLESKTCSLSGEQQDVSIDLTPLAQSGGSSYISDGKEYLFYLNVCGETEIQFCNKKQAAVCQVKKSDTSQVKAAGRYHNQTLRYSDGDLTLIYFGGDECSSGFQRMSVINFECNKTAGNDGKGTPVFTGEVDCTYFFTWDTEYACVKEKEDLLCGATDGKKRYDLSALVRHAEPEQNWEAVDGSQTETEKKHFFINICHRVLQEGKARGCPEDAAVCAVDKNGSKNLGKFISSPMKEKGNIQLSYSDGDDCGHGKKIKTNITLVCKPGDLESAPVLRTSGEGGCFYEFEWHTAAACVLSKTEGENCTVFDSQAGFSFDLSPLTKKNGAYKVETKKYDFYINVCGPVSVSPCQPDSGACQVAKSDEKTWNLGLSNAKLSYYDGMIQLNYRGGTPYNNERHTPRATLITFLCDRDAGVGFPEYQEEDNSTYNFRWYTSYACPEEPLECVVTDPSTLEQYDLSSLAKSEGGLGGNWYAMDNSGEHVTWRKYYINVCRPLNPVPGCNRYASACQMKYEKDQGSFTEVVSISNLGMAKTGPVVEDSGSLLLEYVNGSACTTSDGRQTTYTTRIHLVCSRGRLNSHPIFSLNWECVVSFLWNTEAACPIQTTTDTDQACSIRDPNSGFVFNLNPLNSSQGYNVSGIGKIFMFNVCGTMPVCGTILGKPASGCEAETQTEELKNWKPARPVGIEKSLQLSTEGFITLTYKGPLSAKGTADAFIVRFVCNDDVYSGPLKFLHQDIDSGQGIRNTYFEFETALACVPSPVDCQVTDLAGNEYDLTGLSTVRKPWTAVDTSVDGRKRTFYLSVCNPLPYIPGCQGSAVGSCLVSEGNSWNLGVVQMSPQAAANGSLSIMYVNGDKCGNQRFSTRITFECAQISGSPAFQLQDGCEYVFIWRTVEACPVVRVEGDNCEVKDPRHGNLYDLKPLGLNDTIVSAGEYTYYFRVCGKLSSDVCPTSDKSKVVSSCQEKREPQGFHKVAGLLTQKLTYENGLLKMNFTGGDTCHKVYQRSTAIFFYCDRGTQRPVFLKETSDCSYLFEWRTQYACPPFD

Jurkat cells [2] = assay: Uptake of IgE-Alexa488 target protein in Jurkat cells; type: cell-based
Procedure: The omalizumab conjugates of Example 142 were bound to IgE-Alexa488 (prepared according to Example 144), as follows: equal molar ratios of omalizumab (anti-IgE) conjugate and IgE-Alexa488 were added in tissue culture media for 30 minutes at room temperature. The resulting anti-IgE conjugate:IgE antibody-Alexa488 compositions were added to Jurkat cells (100 k cells/50 ul per well, n=2), and Alexa488 fluorescence levels in the cells were measured at 1 hour by flow cytometry. As the fluorescently labelled target (IgE antibody) accumulates in cells, the fluorescence presents a way to measure total intracellular uptake by cells over time.

CI-M6PR [3] = molecular target: T1, CI-M6PR; assay: CI-M6PR SPR binding assay; details: omalizumab conjugates at DAR of about 4; relative to 529 and 552
Procedure: The CI-M6PR binding affinities of omalizumab (anti-IgE) conjugates of Table 19 were also assessed via SPR binding assay. […] At equivalent DAR (m) values, the koff rate of the omalizumab (anti-IgE) conjugates was 552>529>570.
Target sequence in this assay (P11717 41-2491): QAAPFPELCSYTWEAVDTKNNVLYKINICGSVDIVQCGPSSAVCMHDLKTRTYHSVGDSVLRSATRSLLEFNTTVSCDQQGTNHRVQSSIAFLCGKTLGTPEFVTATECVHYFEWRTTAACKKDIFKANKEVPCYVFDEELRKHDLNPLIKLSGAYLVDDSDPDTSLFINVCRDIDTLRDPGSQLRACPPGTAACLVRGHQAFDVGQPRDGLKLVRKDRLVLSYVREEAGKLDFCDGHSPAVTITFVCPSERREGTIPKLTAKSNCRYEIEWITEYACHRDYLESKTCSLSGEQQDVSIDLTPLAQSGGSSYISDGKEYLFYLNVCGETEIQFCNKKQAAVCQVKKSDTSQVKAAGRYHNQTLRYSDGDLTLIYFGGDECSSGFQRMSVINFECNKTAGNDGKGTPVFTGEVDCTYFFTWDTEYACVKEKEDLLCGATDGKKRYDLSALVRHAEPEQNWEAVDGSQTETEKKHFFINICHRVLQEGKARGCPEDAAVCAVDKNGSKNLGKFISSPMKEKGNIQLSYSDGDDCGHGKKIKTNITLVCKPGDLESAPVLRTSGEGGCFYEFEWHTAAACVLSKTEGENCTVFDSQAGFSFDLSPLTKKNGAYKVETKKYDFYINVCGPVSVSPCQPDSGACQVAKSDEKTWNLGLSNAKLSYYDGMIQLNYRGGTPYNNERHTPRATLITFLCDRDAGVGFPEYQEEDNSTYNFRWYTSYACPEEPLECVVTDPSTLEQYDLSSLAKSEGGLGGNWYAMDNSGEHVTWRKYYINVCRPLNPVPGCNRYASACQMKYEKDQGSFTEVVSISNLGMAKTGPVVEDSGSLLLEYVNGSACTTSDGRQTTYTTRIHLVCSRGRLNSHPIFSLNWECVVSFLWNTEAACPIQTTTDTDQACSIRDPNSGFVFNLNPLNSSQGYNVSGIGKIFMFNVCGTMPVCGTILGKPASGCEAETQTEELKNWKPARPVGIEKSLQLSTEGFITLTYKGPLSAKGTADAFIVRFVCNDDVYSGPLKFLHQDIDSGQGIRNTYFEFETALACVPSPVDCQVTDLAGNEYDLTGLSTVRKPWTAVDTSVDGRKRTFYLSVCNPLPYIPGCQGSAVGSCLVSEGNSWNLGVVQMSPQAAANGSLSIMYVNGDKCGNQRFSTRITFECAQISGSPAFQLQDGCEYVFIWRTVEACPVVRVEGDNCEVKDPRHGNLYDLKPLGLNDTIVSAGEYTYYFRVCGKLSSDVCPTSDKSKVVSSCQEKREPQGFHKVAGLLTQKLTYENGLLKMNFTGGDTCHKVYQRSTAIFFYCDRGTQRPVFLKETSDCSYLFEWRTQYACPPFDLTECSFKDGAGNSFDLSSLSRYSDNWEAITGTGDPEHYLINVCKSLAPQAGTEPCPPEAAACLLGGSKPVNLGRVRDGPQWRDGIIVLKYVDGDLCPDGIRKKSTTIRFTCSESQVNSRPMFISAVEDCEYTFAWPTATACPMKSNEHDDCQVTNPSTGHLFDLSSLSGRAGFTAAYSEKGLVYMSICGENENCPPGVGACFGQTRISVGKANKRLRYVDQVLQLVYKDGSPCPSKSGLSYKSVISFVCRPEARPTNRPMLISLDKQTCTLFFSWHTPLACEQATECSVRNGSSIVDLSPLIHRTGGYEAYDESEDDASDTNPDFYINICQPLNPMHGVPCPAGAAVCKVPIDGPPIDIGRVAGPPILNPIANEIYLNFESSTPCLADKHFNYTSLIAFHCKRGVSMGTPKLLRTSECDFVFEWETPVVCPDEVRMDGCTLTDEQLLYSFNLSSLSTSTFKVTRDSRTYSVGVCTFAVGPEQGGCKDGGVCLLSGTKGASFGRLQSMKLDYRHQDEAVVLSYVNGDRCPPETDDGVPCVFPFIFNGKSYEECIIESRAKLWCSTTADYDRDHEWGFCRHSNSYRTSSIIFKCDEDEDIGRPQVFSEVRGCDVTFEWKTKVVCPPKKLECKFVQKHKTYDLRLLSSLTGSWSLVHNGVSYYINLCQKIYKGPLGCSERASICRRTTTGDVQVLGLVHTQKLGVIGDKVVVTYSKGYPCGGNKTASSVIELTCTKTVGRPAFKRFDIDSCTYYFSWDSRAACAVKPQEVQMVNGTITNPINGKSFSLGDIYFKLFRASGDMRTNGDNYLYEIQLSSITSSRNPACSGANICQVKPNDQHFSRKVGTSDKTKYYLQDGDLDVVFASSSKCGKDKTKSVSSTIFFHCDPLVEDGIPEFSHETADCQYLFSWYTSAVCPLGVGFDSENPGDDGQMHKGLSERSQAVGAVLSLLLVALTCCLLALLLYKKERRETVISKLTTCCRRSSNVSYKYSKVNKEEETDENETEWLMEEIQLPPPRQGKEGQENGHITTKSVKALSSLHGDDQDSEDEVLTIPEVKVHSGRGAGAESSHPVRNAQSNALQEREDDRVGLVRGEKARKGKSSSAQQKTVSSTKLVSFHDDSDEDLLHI

Jurkat cells [4] = assay: Uptake of IgG2a-Alexa488 into Jurkat cells; type: cell-based; details: anti-IgG2a conjugates, 1 hour and 24 hours
Procedure: The anti-IgG2a conjugates were bound to IgG2a-Alexa488, as follows: equal molar ratios of anti-IgG2a and IgG2a-Alexa488 were added in tissue culture media for 30 minutes at room temperature. The resulting anti-IgG2a:IgG2a antibody-Alexa488 compositions were added to Jurkat cells (100 k cells/50 ul per well, n=2), and Alexa488 fluorescence levels were measured (via Alexa488 measurement) at 1 hour and 24 hours by flow cytometry. As the fluorescently labelled target (IgG2a antibody) accumulates in cells, the fluorescence presents a way to measure total intracellular uptake by cells over time.

[5] = Serum pharmacokinetic analysis of rIgG1 (anti-IgG2a) antibody conjugates; type: in vivo, mice; details: intravenous 10 μg/mouse, compared to Compound I-7
Procedure: A pharmacokinetic analysis of the rIgG1 (anti-IgG2a) antibody conjugates described in the previous example was performed in mice. In particular, […] mice were intravenously administered each rIgG1 antibody conjugate at 10 μg/mouse (5 mice per group). Blood was collected at 0.5, 1, 2, 6, and 24 hours and serum rIgG1 was analyzed using an ELISA kit (Abcam) according to the manufacturer's instructions. Samples were run across 3 different plates with unconjugated rIgG1 controls (UNLB-anti-IgG2a rIgG1) included on all 3 plates. FIGS. 8A-8C show the serum levels of anti-IgG2a conjugated to Compound 1-7 (dar8) and (dar4) (FIG. 8A), anti-IgG2a conjugated to Compound I-10 and anti-IgG2a conjugated to Compound I-11 (FIG. 8B), and anti-IgG2a conjugated to Compound I-9 and anti-IgG2a conjugated to Compound I-12 (FIG. 8C) over time.

M6PR (Domains 1-9) = molecular target: T2, M6PR (Domains 1-9) (Homo sapiens, UniProt P11717); assay: General M6PR binding assay (fluorescence polarization); details: 100 nM M6PR, 1 nM probe, 2 hr incubation
T2 construct: with 100 nM M6PR (Domains 1-9, R&D Systems) and 1 nM probe; purchased R&D Systems
Procedure: M6PR binding was measured in black 96-well plates using a fluorescence polarization assay. A fluorescent probe consisting of a reference M6Pn ligand linked to Cy5 was synthesized. Test compounds were resuspended in DMSO and 3-fold serial dilutions were made at 100× final concentrations. Binding reactions were conducted in 100 μl final volume in 20 mM HEPES (pH 7.5) 100 mM NaCl 0.015% o Tween-20 1% DMSO with 100 nM M6PR (Domains 1-9, R&D Systems) and 1 nM probe. Fluorescence polarization was measured using λex=620 nm, λem=688 nm on an Envision plate reader (Perkin Elmer) after 2 hr incubation time. Dose responses were conducted in duplicate and normalized to the response with DMSO (high) and 1 μM reference compound (low) on each plate. IC50 values were determined by fitting to 4-parameter curves in GraphPad Prism.

[6] = omalizumab conjugates of Table 15B, Jurkat cells, 1 hour (FIG. 18-21)
[7] = omalizumab conjugates of Table 19, Jurkat cells (FIG. 23)
[8] = omalizumab conjugates of Table 15A, Jurkat cells, 1 hour (FIG. 15-17)

T2 sequence (P11717 41-1365 limits assumed): as the sequence (P11717 41-1365 limits assumed) above

SMILES: O=C(CCOCCOCCOCCOCCn1cc(CCCCNC(=S)Nc2ccc(O[C@H]3O[C@H](CCP(=O)(O)O)[C@@H](O)[C@H](O)[C@@H]3O)cc2)nn1)Oc1c(F)c(F)c(F)c(F)c1F [520 (I-7)]
binding affinity to M6PR, rank among the conjugates tested (CI-M6PR [1]): highest

SMILES: O=C(CCOCCn1cc(CCO[C@H]2O[C@H](CCP(=O)(O)O)[C@@H](O)[C@H](O)[C@@H]2O)nn1)Oc1c(F)c(F)c(F)c(F)c1F [605 (I-11)]
binding affinity to M6PR, rank among the conjugates tested (CI-M6PR [1]): lowest binding affinity

SMILES: O=C(NCCCCc1cn(CCOCCOCCOCCOCCC(=O)Oc2c(F)c(F)c(F)c(F)c2F)nn1)Nc1ccc(S[C@H]2O[C@H](CCP(=O)(O)O)[C@@H](O)[C@H](O)[C@@H]2O)cc1 [Compound 552]
cellular uptake activity of Alexa488 labeled-target IgE (Jurkat cells [2]; [6]): comparable activity; also recorded: more activity when at m=6 loading versus m=4 loading
cellular uptake activity of Alexa488 labeled-target IgE (Jurkat cells [2]; [7]): comparable by less activity

SMILES: O=C(NCCCCc1cn(CCOCCOCCOCCOCCC(=O)Oc2c(F)c(F)cc(F)c2F)nn1)Nc1ccc(O[C@H]2O[C@H](CCP(=O)(O)O)[C@@H](O)[C@H](O)[C@@H]2O)cc1 [Compound 558]
cellular uptake activity of Alexa488 labeled-target IgE (Jurkat cells [2]; [8]): active in this assay, although less active

SMILES: O=C(NCCCCc1cn(CCOCCOCCOCCOCCC(=O)Oc2c(F)c(F)c(F)c(F)c2F)nn1)Nc1ccc(S[C@@H]2O[C@H](CCP(=O)(O)O)[C@@H](O)[C@H](O)[C@@H]2O)cc1 [Compound 570]
cellular uptake activity of Alexa488 labeled-target IgE (Jurkat cells [2]; [6]): superior activity
cellular uptake activity of Alexa488 labeled-target IgE (Jurkat cells [2]; [7]): superior activity
Kd (CI-M6PR [3]): superior Kd

SMILES: CO[C@H]1O[C@H](COCCCCCc2cn(CCOCCOCCOCCOCCC(=O)Oc3c(F)c(F)c(F)c(F)c3F)nn2)[C@@H](O)[C@H](O)[C@@H]1O[C@H]1O[C@H](CCP(=O)(O)O)[C@@H](O)[C@H](O)[C@@H]1O [Compound 659]
cellular uptake activity of Alexa488 labeled-target IgE (Jurkat cells [2]; [6]): potent and comparable activity

SMILES: CO[C@H]1C[C@H](c2cn(CCOCCOCCOCCOCCOCCOCCC(=O)Oc3c(F)c(F)c(F)c(F)c3F)nn2)[C@@H](O)[C@H](O)[C@@H]1O[C@H]1O[C@H](CCP(=O)(O)O)[C@@H](O)[C@H](O)[C@@H]1O [Compound 660]
cellular uptake activity of Alexa488 labeled-target IgE (Jurkat cells [2]; [6]): potent and comparable activity

SMILES: O=C(NCCCCc1cn(CCOCCOCCOCCOCCC(=O)Oc2c(F)c(F)c(F)c(F)c2F)nn1)Nc1ccc(O[C@H]2C[C@H](CCP(=O)(O)O)[C@@H](O)[C@H](O)[C@@H]2O)cc1 [Compound 665]
cellular uptake activity of Alexa488 labeled-target IgE (Jurkat cells [2]; [8]): low activity

SMILES: O=C(CCOCCOCCOCCN(CCOCCOCCOCCn1cc(CCO[C@H]2O[C@H](CCP(=O)(O)O)[C@@H](O)[C@H](O)[C@@H]2O)nn1)CCOCCOCCOCCn1cc(CCO[C@H]2O[C@H](CCP(=O)(O)O)[C@@H](O)[C@H](O)[C@@H]2O)nn1)Oc1c(F)c(F)c(F)c(F)c1F [Compound 716]
cellular uptake activity of Alexa488 labeled-target IgE (Jurkat cells [2]; [8]): inferior uptake

SMILES: O=C(CCOCCn1cc(CCO[C@H]2O[C@H](CCP(=O)(O)O)[C@@H](O)[C@H](O)[C@@H]2O)nn1)Oc1c(F)c(F)c(F)c(F)c1F [Compound I-11]
intracellular uptake of IgG2a-Alexa488 (Jurkat cells [4]): sufficiently robust uptake
half-life in mice [5]: longer half-life
binding affinity to M6PR compared to Compound I-7 (CI-M6PR [1]; conjugates of ligand linkers): weaker binding affinity

IC50 (M6PR (Domains 1-9)): 100 to 500 nM
SMILES: O=C(NCCCCc1cn(-c2cccnc2)nn1)Nc1ccc(O[C@@H]2O[C@H](CCP(=O)(O)O)[C@@H](O)[C@H](O)[C@@H]2O)cc1 [Compound P1]

IC50 (M6PR (Domains 1-9)): 100 to 500 nM
SMILES: O=C(NCCCCc1cn(-c2cccnc2)nn1)Nc1ccc(O[C@H]2O[C@H](CCP(=O)(O)O)[C@@H](O)[C@H](O)[C@@H]2O)cc1 [Compound P2]

IC50 (M6PR (Domains 1-9)): 100 to 500 nM
SMILES: O=C(NCCCCc1cn(-c2cccnc2)nn1)Nc1ccc(S[C@@H]2O[C@H](CCP(=O)(O)O)[C@@H](O)[C@H](O)[C@@H]2O)cc1 [Compound P3]

IC50 (M6PR (Domains 1-9)): 100 to 500 nM
SMILES: O=C(NCCCCc1cn(-c2cccnc2)nn1)Nc1ccc(S[C@H]2O[C@H](CCP(=O)(O)O)[C@@H](O)[C@H](O)[C@@H]2O)cc1 [Compound P4]
